Measured values as given in PubChem BioAssay (NCI).
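96-well plates; 48 h exposure; 5 concentrations. Endpoints by linear interpolation between flanking doses. Not reached: highest tested concentration assigned. TGI denotes the concentration required for complete inhibition of growth.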 Where a SMILES comes first, the peptide text is derived from it. [ ]: non-standard residue; d: D form. The star is where a group is joined. X28 = COC1=CC(=O)N(C(=O)[C@@H](O*)C(C)C)[C@H]1Cc1ccccc1; NMeL = CN[C@@H](CC(C)C)C(=O)O; Cbz = O=C(OCc1ccccc1)*

How the values were obtained:
Assay in all cases: NCI-60 cell line screen, 48 h
HL-60(TB) leukemia = tested on: HL-60(TB) leukemia
MCF7 breast = tested on: MCF7 breast
KM12 colon = tested on: KM12 colon
HOP-92 NSCLC = tested on: HOP-92 NSCLC
HCT-15 colon = tested on: HCT-15 colon
HCT-116 colon = tested on: HCT-116 colon
T-47D breast = tested on: T-47D breast
MALME-3M melanoma = tested on: MALME-3M melanoma
RXF 393 renal = tested on: RXF 393 renal
ACHN renal = tested on: ACHN renal
NCI-H226 lung = tested on: NCI-H226 lung
HT29 colon = tested on: HT29 colon
OVCAR-5 ovarian = tested on: OVCAR-5 ovarian

SMILES | TGI (HL-60(TB) leukemia) [µM] | TGI (MCF7 breast) [µM] | TGI (KM12 colon) [µM] | TGI (HOP-92 NSCLC) [µM] | TGI (HCT-15 colon) [µM] | TGI (HCT-116 colon) [µM] | TGI (T-47D breast) [µM] | TGI (MALME-3M melanoma) [µM] | TGI (RXF 393 renal) [µM] | TGI (ACHN renal) [µM] | TGI (NCI-H226 lung) [µM] | TGI (HT29 colon) [µM] | TGI (OVCAR-5 ovarian) [µM]
CC1(C)CC(=O)C2=C(C1)N(c1ccccc1)C1(O)C=CC(=O)C3=C(O)c4ccccc4C(=O)C321 (centres undefined) | > 100 | > 100 | 86.3 | 58.5 | > 100 | > 100 | > 100 | 66.8 | 39.6 | 46.2 | 42.4 | 54 | > 100
OC(C1CCCC1=N/N=C1/CCCC1C(O)(C(F)(F)Cl)C(F)(F)Cl)(C(F)(F)Cl)C(F)(F)Cl (centres undefined) | > 10 | > 10 | > 10 | > 10 | > 10 | > 10 | > 10 | > 10 | > 10 | > 10 | > 10 | > 10 | > 10
COC1=CC(=O)N(C(=O)[C@@H](OC(=O)[C@@H]2CCCN2C(=O)[C@@H]2CCCN2C(=O)[C@H](CC(C)C)N(C)C(=O)[C@@H](NC(=O)[C@@H](NC(=O)OCc2ccccc2)C(C)C)C(C)C)C(C)C)[C@H]1Cc1ccccc1 (Cbz-VV[NMeL]PP-X28) | > 100 | > 100 | > 100 | > 100 | > 100 | > 100 | > 100 | > 100 | 38.9 | > 100 | > 100 | > 100 | > 100
CN(C)C(=O)CO/N=C1/C(c2c(O)[nH]c3ccccc23)=Nc2ccccc21 | > 100 | > 100 | > 100 | > 100 | > 100 | > 100 | > 100 | > 100 | 58.6 | > 100 | > 100 | > 100 | > 100
O=C(O)C1C2CCC(C2)C1c1ccccc1 (centres undefined) | > 100 | > 100 | > 100 | > 100 | > 100 | > 100 | > 100 | > 100 | > 100 | > 100 | > 100 | > 100 | > 100
OC1NC2CC3NC(O)C(O)NC3CC2NC1O (centres undefined) | > 100 | > 100 | > 100 | > 100 | > 100 | > 100 | > 100 | > 100 | > 100 | > 100 | > 100 | > 100 | > 100
CC1(C)OCC(C2OC(=O)C(OCc3ccccc3)=C2OCc2ccccc2)O1 (centres undefined) | 52 | > 100 | > 100 | > 100 | > 100 | > 100 | > 100 | 93.9 | > 100 | > 100 | > 100 | > 100 | > 100
COc1cc(C(=O)OC2CC(C)=CC[C@@]3(C)CC[C@](O)(C(C)C)C23)ccc1O (some centres undefined) | > 100 | 28.9 | 29.9 | 30.5 | 35.3 | 33.1 | 47.6 | 34.3 | 35.4 | 32.6 | 32.5 | 29.8 | 32.6
C/C(=N\Nc1ncnc2ccccc12)c1ccccn1 | 10.7 | 25.1 | 22.1 | 7.75 | > 56.8 | 13.9 | 20.7 | 1.58 | 17.3 | 8.46 | 1.13 | > 46.6 | 64.6
Cn1c2cc(Cl)ccc2c2ccc3c(c21)C(=O)C=CC3=O | 45.9 | 50.6 | > 100 | 35.8 | > 57.5 | > 53.7 | 55.6 | 33.4 | 40 | 40.9 | > 100 | > 64.6 | > 100
CC(C)(CO)NC(=O)c1cccc(C(=O)NC(C)(C)CO)c1Br | > 100 | > 100 | > 100 | > 100 | > 100 | > 100 | > 100 | > 100 | > 100 | > 100 | > 100 | > 100 | > 100
O=C(O)[C@H]1NC[C@@H]2ON=C(Br)[C@@H]21 | > 100 | > 100 | > 100 | > 100 | > 100 | > 100 | > 100 | > 100 | > 100 | > 100 | > 100 | > 100 | > 100
COC(=O)C1=C2Nc3ccccc3C23CCN2C(O)C4(CC5CC67CCOC6CCN6CCC8(c9cccc(OC)c9N(C4)C58O)C67)C4OCCC4(C1)C23 (centres undefined) | > 100 | > 100 | > 100 | 87.7 | > 100 | > 100 | 55.7 | > 100 | > 100 | > 100 | > 100 | > 100 | > 100
O=C(O)c1ccc(/C=N\N(CCO)C2=NCCN2)cc1 | > 100 | > 100 | > 100 | > 100 | > 100 | > 100 | > 100 | > 100 | > 100 | > 100 | > 100 | > 100 | > 100
CC(=O)O[C@@H]1CC2[C@@H](CCC3Cc4nc5c(nc4C[C@@]32C)CC2CC[C@@H]3C(CC[C@@]4(C)C3CC[C@@H]4C(C)CCCC(C)C)[C@@]2(C)C5)C2C[C@@H]3OC4(CCC(C)CO4)C(C)[C@@H]3[C@]21C (some centres undefined) | > 100 | > 100 | > 100 | 70 | > 100 | > 100 | > 100 | > 100 | 50.3 | > 100 | 87.1 | > 100 | > 100
COc1ccc(C2c3c(-c4ccccc4)nn(-c4ccccc4)c3Oc3ncn(N)c(=N)c32)cc1OC (centres undefined) | > 100 | 3.26 | 3.33 | 11 | 4.06 | 3.24 | 4.48 | 3.24 | 4.53 | 3.69 | 7.44 | 4.32 | 13.5
CCC(c1nc2ccccc2c(=O)n1NC(=O)C(C)(C)C)C1(O)CCCCC1 (centres undefined) | > 100 | > 100 | > 100 | > 100 | > 100 | > 100 | > 100 | > 100 | > 100 | > 100 | > 100 | > 100 | > 100
COC(=O)Nc1nc2ccc(NS(=O)(=O)c3ccc(F)cc3)cc2[nH]1 | 8.45 | > 100 | 74.7 | > 100 | > 100 | > 100 | > 100 | > 100 | 78.6 | > 100 | > 100 | 37.4 | > 100
